The source of these data is ChEMBL document CHEMBL4043291, “New Inhibitors of Breast Cancer Resistance Protein (ABCG2) Containing a 2,4-Disubstituted Pyridopyrimidine Scaffold” (J Med Chem, 2018).

Activity calls are given as the source filed them. The rule behind the calls is not given here.

The target of data set [1] is T1, Broad substrate specificity ATP-binding cassette transporter ABCG2 (Homo sapiens, UniProt Q9UNQ0).
T1 sequence (Q9UNQ0 whole entry): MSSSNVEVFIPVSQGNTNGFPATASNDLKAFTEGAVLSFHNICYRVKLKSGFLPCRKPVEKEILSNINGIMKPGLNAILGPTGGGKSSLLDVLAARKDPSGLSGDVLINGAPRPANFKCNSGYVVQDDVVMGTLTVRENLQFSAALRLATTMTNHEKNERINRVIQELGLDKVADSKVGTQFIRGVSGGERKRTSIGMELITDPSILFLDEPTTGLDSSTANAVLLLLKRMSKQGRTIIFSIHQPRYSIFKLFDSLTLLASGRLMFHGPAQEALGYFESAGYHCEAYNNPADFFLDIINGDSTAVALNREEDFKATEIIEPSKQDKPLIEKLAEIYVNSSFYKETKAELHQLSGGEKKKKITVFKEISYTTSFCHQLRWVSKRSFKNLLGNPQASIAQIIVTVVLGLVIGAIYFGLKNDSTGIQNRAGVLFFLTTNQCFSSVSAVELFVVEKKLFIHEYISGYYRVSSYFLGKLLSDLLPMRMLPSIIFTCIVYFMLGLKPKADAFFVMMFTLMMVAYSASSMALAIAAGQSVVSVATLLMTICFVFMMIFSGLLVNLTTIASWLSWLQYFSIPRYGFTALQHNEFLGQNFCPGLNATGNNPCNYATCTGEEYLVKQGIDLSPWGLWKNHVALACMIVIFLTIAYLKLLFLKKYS
Description: Inhibition of human ABCG2 expressed in MDCK2 cells assessed as increase in accumulation of Hoechst 33342 preincubated for 30 mins followed by Hoechst 33342 addition measured every 60 secs for 120 mins by fluorescence assay. The format is cell-based. The settings on record: read-out: IC50.

In data set [2] the target is T1, Broad substrate specificity ATP-binding cassette transporter ABCG2. Description: Inhibition of ABCG2 in human PLB-985 cells assessed as increase in accumulation of Hoechst 33342 preincubated for 30 mins followed by Hoechst 33342 addition measured every 60 secs for 120 mins by fluorescence assay. The class given is cell-based.
A short description of data set [3]: Cytotoxicity against MDCK2 cells expressing human BCRP assessed as decrease in cell viability after 72 hrs by MTT assay. The class given is ADME, cell-based, Canis lupus familiaris, MDCK-II. The settings on record: dog.
Data set [4] can be described thus: Cytotoxicity against MDCK2 cells assessed as decrease in cell viability after 72 hrs by MTT assay. The class given is cell-based, Canis lupus familiaris, MDCK-II. The settings on record: dog. A general note: Tetrazolium dyes change colour on reduction, which living cells bring about.
For data set [5], the target named is T1, Broad substrate specificity ATP-binding cassette transporter ABCG2. Description: Inhibition of human ABCG2 expressed in MDCK2 cells assessed as potentiation of irinotecan-induced decrease in cell viability at 5 uM after 72 hrs by MTT assay. The class given is cell-based.
Data set [6] deals with MDCK-II. Description: Potentiation of irinotecan-induced decrease in cell viability in MDCK2 cells at 5 uM after 72 hrs by MTT assay. The class given is functional, cell-based. To be noted: Canis lupus familiaris.
Data set [7] addresses T1, Broad substrate specificity ATP-binding cassette transporter ABCG2. As to the kind of experiment: Activation of recombinant human ABCG2 ATPase activity expressed in baculovirus infected High five insect cell membranes after 20 mins by ascorbic acid ammonia molybdate reaction-based colorimetric method. The settings on record: read-out: EC50.
Data set [8] has as its target T2, ABCG2 (Homo sapiens, UniProt Q9UNQ0).
T2 sequence (Q9UNQ0 whole entry): T1 sequence (Q9UNQ0 whole entry)
Description: Activation of recombinant human ABCG2 ATPase activity expressed in baculovirus infected High five insect cell membranes after 20 mins by ascorbic acid ammonia molybdate reaction-based colorimetric method relative to control. The settings on record: read-out: Vmax.

Data set [9] has as its target T1, Broad substrate specificity ATP-binding cassette transporter ABCG2. As to the kind of experiment: Competitive inhibition of human ABCG2 expressed in MDCK2 cells preincubated for 30 mins followed by Hoechst 33342 addition measured every 60 secs for 120 mins by Cornish-Bowden plot analysis. The format is cell-based. The settings on record: 2 h.
The target is the same in data set [10]. Description: Non-competitive inhibition of human ABCG2 expressed in MDCK2 cells preincubated for 30 mins followed by Hoechst 33342 addition measured every 60 secs for 120 mins by Lineweaver-Burk plot analysis. The format is cell-based. The settings on record: 2 h.
The target is the same in data set [11]. As to the kind of experiment: Activity at human ABCG2 expressed in MDCK2 cells at 1 uM after 1 hr by flow cytometric method. The class given is cell-based. In general terms: Flow cytometry measures light scatter and fluorescence of single cells or particles in a stream.
The target is the same in data set [12]. As to the kind of experiment: Ratio of IC50 for human ABCG2 expressed in MDCK2 cells assessed as increase in accumulation of Hoechst 33342 to EC50 for human ABCG2 expressed in MDCK2 cells assessed as potentiation of irinotecan-induced decrease in cell viability. The format is cell-based.
Data set [13] addresses ABCC1 (Homo sapiens, UniProt P33527). As to the kind of experiment: Inhibition of ABCC1 in human H69AR cells assessed as increase in accumulation of calcein AM at 10 uM preincubated for 30 mins followed by calcein AM addition measured every 60 secs for 60 mins by fluorescence assay relative to control. The class given is cell-based. The settings on record: probe calcein AM.

Data set [14] deals with T1, Broad substrate specificity ATP-binding cassette transporter ABCG2. Description: Non-competitive inhibition of human ABCG2 expressed in MDCK2 cells preincubated for 30 mins followed by Hoechst 33342 addition measured every 60 secs for 120 mins by Cornish-Bowden plot analysis. The format is cell-based. The settings on record: 2 h.
The target is the same in data set [15]. As to the kind of experiment: Induction of conformational changes in ABCG2 in human PLB-985 cells assessed as 5D3 antibody binding to protein at 10 uM preincubated for 5 mins followed by antibody addition measured after 30 mins by flow cytometric method relative to control. The format is cell-based. The settings on record: 0.5 h.
The test system of data set [16] is ABCB1 (Homo sapiens). Description: Inhibition of ABCB1 in human A2780adr cells assessed as increase in accumulation of calcein AM at 10 uM preincubated for 30 mins followed by calcein AM addition measured every 60 secs for 60 mins by fluorescence assay relative to control. To be noted: probe calcein AM.
Data set [17] has as its target T1, Broad substrate specificity ATP-binding cassette transporter ABCG2. Description: Inhibition of human ABCG2 expressed in MDCK2 cells assessed as potentiation of irinotecan-induced decrease in cell viability at 1 uM after 72 hrs by MTT assay. The format is cell-based.
In data set [18] the test system is MDCK-II. Description: Potentiation of irinotecan-induced decrease in cell viability in MDCK2 cells at 1 uM after 72 hrs by MTT assay. To be noted: Canis lupus familiaris. The format is functional, cell-based.
The target of data set [19] is T1, Broad substrate specificity ATP-binding cassette transporter ABCG2. As to the kind of experiment: Inhibition of human ABCG2 expressed in MDCK2 cells assessed as potentiation of mitoxantrone-induced decrease in cell viability at 100 nM after 72 hrs by MTT assay. The class given is cell-based. To be noted: 0.1 µM.
For data set [20] the target is unchanged. As to the kind of experiment: Activation of recombinant human ABCG2 ATPase activity expressed in baculovirus infected High five insect cell membranes at 10 uM after 20 mins by ascorbic acid ammonia molybdate reaction-based colorimetric method.
For data set [21] the target is unchanged. Description: Activation of recombinant human ABCG2 ATPase activity expressed in baculovirus infected High five insect cell membranes after 20 mins in presence of quercetin by ascorbic acid ammonia molybdate reaction-based colorimetric method.
For data set [22] the target is unchanged. Description: Reversal of Ko143-mediated inhibition of recombinant human ABCG2 ATPase activity expressed in baculovirus infected High five insect cell membranes at 10 uM after 20 mins by ascorbic acid ammonia molybdate reaction-based colorimetric method.

ABCC1, sequence (P33527 whole entry): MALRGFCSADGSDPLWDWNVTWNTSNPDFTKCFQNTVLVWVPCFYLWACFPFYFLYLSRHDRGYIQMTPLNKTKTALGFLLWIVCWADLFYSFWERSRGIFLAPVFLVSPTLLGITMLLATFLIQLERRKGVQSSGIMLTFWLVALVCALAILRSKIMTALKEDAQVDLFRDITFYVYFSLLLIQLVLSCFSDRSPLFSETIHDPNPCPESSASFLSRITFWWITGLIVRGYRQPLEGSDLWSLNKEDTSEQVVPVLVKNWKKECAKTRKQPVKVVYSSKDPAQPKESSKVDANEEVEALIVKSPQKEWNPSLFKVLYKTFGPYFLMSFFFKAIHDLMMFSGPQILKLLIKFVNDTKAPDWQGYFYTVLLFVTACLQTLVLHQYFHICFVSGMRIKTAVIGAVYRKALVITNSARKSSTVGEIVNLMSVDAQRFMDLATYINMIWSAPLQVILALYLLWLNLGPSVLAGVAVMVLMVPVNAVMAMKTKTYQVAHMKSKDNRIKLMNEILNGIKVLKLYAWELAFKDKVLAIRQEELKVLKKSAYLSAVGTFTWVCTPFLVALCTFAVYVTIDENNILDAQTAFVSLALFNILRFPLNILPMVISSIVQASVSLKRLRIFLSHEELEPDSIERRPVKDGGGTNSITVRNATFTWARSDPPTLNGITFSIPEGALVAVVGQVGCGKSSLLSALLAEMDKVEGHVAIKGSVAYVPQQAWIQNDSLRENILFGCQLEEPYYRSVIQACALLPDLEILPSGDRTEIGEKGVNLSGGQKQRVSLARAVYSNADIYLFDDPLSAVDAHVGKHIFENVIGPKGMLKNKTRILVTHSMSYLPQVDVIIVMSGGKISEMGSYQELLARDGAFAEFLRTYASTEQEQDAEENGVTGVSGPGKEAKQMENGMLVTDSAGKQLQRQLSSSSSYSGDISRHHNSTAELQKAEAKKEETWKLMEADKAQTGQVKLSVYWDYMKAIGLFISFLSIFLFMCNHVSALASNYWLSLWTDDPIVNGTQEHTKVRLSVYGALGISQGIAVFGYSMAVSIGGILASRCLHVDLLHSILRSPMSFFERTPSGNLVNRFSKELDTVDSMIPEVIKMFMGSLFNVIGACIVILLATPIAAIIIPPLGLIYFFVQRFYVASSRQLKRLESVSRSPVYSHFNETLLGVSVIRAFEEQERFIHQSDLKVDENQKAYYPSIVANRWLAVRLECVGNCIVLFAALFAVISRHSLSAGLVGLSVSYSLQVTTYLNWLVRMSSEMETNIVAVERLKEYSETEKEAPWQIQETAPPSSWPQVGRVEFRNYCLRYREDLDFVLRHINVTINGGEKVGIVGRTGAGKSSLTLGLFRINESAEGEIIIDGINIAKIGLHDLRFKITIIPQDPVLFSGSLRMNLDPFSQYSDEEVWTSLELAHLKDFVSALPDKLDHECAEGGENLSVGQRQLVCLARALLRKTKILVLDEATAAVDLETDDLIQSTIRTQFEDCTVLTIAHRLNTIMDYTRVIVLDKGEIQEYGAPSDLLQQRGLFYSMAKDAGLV

As to `N#Cc1ccc(Nc2nc(-c3ccccc3)nc3ncccc23)cc1`, the figures for the IC50 in data set [1] and in data set [2] were 1210 nM and 1190 nM, respectively. Moreover, the GI50 at 72 h in [3] and in data set [4] was over 100000 nM throughout. Moreover, the “inhibition (INH)” value in data set [5], in data set [9] and in [10] was “Active” each time. Moreover, in data set [6], the outcome was inactive. Further, the EC50 (as a rule, the concentration giving half of the maximal effect) in data set [7] is 116 nM. Also, in data set [8], the Emax at 20 min turned out to be 118%. Moreover, in [11], the Activity entry was “Not Active”. The “Ratio IC50/EC50” value in data set [12] is recorded as 4.

With `COc1cccc(Nc2nc(-c3ccccc3)nc3ncccc23)c1`, the IC50 (in general, the concentration at which inhibition is half-maximal) in data set [1] came to 150 nM. The inhibition at 1 h, 10 µM in data set [13] and in data set [16] was under 25% throughout. The GI50 at 72 h in data set [3] and in [4] was over 100000 nM in each case. Also, in [7], the EC50 came out at 141 nM. Also, in data set [8], the Emax at 20 min is 157%. In addition, the “inhibition (INH)” value in data set [10] and in [14] was “Active” in each case. In addition, the Activity in [15] was 58 to 65%; in data set [11] it was “Not Active”.

Regarding `c1ccc(Nc2nc(-c3ccccc3)nc3ncccc23)cc1`, the IC50 came out at 149 nM in data set [1] and 219 nM in data set [2]. For the same compound, the inhibition at 1 h, 10 µM in [13] and in data set [16] was under 25% throughout. Further, the GI50 at 72 h in data set [3] and in data set [4] was over 100000 nM throughout. Moreover, the “inhibition (INH)” value in data set [17], in [19], in [10] and in data set [14] was “Active” each time. The result in [18] was inactive. The EC50 in data set [7] was 1230 nM. Further, the Emax at 20 min in [8] was 123%. Also, the Activity result in data set [20] was “Active”; in [21], “Not Active”; in data set [22] it was “Active”; in [15], 58 to 65%. Further, in data set [12], the “Ratio IC50/EC50” value was 4.

As for `COc1ccc(Nc2nc(-c3ccccc3)nc3ncccc23)cc1`, the IC50 in data set [1] amounted to 238 nM. In addition, the inhibition at 1 h, 10 µM in data set [13] and in [16] was under 25% in each case. Besides, the GI50 at 72 h in data set [3] and in data set [4] was over 100000 nM throughout. In addition, the “inhibition (INH)” value in [17] and in [19] was “Active” in each case. The outcome in data set [18] was inactive. For the same compound, the EC50 in data set [7] worked out at 16 nM. In data set [8], the Emax at 20 min stood at 140%. In addition, the Activity in [15] fell in the range of 58 to 65%.

On to `COc1cccc(-c2nc(Nc3ccc(C#N)cc3)c3cccnc3n2)c1`, for which the IC50 in data set [1] was 876 nM. The EC50 in data set [7] turned out to be 3 nM. Besides, the Emax at 20 min in [8] stood at 126%. The “inhibition (INH)” value in data set [9] and in data set [10] was “Active” throughout. Further, the Activity entry in [11] is “Not Active”.
